Experimental data taken from patent US9447051B2, “Diaminopyrimidines and uses thereof” (AbbVie inc., priority 2012, dated 2016).

What was measured:
HEp-2 cells = experiment: Cytotoxicity (MTT) assay; format: cell-based; settings: Table 2; uninfected HEp-2 cells, 4 days incubation, 50% toxicity dose
Description: A cytopathetic effect (CPE) protection assay was performed to determine the ability of a compound to protect the cells from viral infection and thus the CPE induced by viral infection. 96-well plates were first seeded with 3×10^3 HEp-2 cells per well in Dulbecco's modified Eagle's medium (DMEM) containing 10% fetal bovine serum (FBS). One day after the cells were seeded, they were preincubated with serial dilutions of compounds prepared in 100 μL assay medium (DMEM mixed with F12 medium at a 1:1 ratio, supplemented with 2% FBS and 1 mM sodium pyruvate) for 1 hour at 37° C. 100 μL of assay medium containing 0.2 multiplicity of infection (MOI) of RSV was then added to each well of cells. In addition to wells containing infected cells incubated with compounds, each plate also contained replicates of two kinds of controls: (1) Virus control contained cells infected with 0.2 MOI of RSV in assay medium, (2) Uninfected cell control contained cells incubated with assay medium only. After 4 days of incubation at 37° C., the viability of cells was assessed using MTT (Thiazolyl blue tetrazolium bromide, Sigma). A stock solution of MTT, at a concentration of 4 mg/mL in phosphate-buffered saline, was added to all wells at 25 μL per well. Plates were further incubated for 4 hours, and each well was then treated with 50 μL of a solution containing 20% sodium dodecyl sulfate (SDS) and 0.02 N HCl. After an overnight incubation, the plates were measured on a BioTek® microtiter plate reader at wavelengths of 570 nm and 650 nm. The MTT detection is based on the fact that viable (uninfected) cells can reduce the tetrazolium salts into colored formazan products, which can then be quantitated by spectrometry. Based on the spectrometric absorbance of each sample, the percent of protection from CPE, which is an indicator of protection from viral infection, can be calculated for each compound and the 50% effective concentrations (EC50) can be calculated using a nonlinear regression curve fitting equation provided by the GraphPad Prism® 4 software.
Cytotoxicity of the compounds was determined in experiments done in parallel with the antiviral assays. To do this, 100 μL of assay medium was added to the wells of HEp-2 cells pretreated with 100 μL serially diluted compounds as described above. After 4 days of incubation, the viability of the cells was determined by the MTT assay in the same way as detailed in the “Antiviral Assay” method. Results were expressed as 50% toxicity dose (TD50) values.
Compounds were tested to determine both their antiviral and toxicity to determine their therapeutic window. Determination of the EC50 and TD50 of these active compounds were repeated one additional time to confirm the window.

[1] = tested on: RSV (Group A, Long Strain); experiment: Antiviral (RSV) assay: cytopathetic effect (CPE) protection assay in HEp-2 cells, MTT readout; format: cell-based, human respiratory syncytial virus (RSV); settings: human respiratory syncytial virus, HEp-2, 96 h
Description: HEp-2 cells and RSV (Group A, Long Strain) were obtained from the American Type Culture Collection (Manassas, Va.). A cytopathetic effect (CPE) protection assay was performed to determine the ability of a compound to protect the cells from viral infection and thus the CPE induced by viral infection. 96-well plates were first seeded with 3×10^3 HEp-2 cells per well in Dulbecco's modified Eagle's medium (DMEM) containing 10% fetal bovine serum (FBS). One day after the cells were seeded, they were preincubated with serial dilutions of compounds prepared in 100 μL assay medium (DMEM mixed with F12 medium at a 1:1 ratio, supplemented with 2% FBS and 1 mM sodium pyruvate) for 1 hour at 37° C. 100 μL of assay medium containing 0.2 multiplicity of infection (MOI) of RSV was then added to each well of cells. In addition to wells containing infected cells incubated with compounds, each plate also contained replicates of two kinds of controls: (1) Virus control contained cells infected with 0.2 MOI of RSV in assay medium, (2) Uninfected cell control contained cells incubated with assay medium only. After 4 days of incubation at 37° C., the viability of cells was assessed using MTT (Thiazolyl blue tetrazolium bromide, Sigma). A stock solution of MTT, at a concentration of 4 mg/mL in phosphate-buffered saline, was added to all wells at 25 μL per well. Plates were further incubated for 4 hours, and each well was then treated with 50 μL of a solution containing 20% sodium dodecyl sulfate (SDS) and 0.02 N HCl. After an overnight incubation, the plates were measured on a BioTek® microtiter plate reader at wavelengths of 570 nm and 650 nm. The MTT detection is based on the fact that viable (uninfected) cells can reduce the tetrazolium salts into colored formazan products, which can then be quantitated by spectrometry. […] Compounds were tested to determine both their antiviral and toxicity to determine their therapeutic window. Determination of the EC50 and TD50 of these active compounds were repeated one additional time to confirm the window.

[2] = Table 1, 0.2 MOI RSV, 4 days incubation, protection from CPE
[3] = Table 2, 0.2 MOI RSV, 4 days, determination repeated to confirm window

| SMILES | EC50 [1, 2] | EC50 [1, 3] | MTT TD50 (HEp-2 cells) |
| --- | --- | --- | --- |
| Cc1cc(NC2CCCCC2)nc(NCc2ccccn2)n1 [Example 4, N^4-cyclohexyl-6-methyl-N^2-(pyridin-2-ylmethyl)pyrimidine-2,4-diamine] | 23500 nM | 23500 nM | 39.00 µM |
| Cc1cc(NC2CCCCCC2)nc(NCc2ccccn2)n1 [Example 3, N^4-cycloheptyl-6-methyl-N^2-(pyridin-2-ylmethyl)pyrimidine-2,4-diamine] | 2790 nM | 2790 nM | 8.04 µM |
| Cc1nc(NCc2ccccn2)nc(N[C@H]2CC[C@H](O)CC2)c1C [Example 79, trans-4-({5,6-dimethyl-2-[(pyridin-2-ylmethyl)amino]pyrimidin-4-yl}amino)cyclohexanol] | 620 nM |  |  |
| Cc1ccc(CNc2nc(C)c(C)c(NC3CCCCC3)n2)nc1 [Example 86, N^4-cyclohexyl-5,6-dimethyl-N^2-[(5-methylpyridin-2-yl)methyl]pyrimidine-2,4-diamine] | 1500 nM |  |  |
| Cc1nc(N[C@H](C)c2ccccc2)nc(NC2CCCCC2)c1C [Example 15, N^4-cyclohexyl-5,6-dimethyl-N^2-[(1R)-1-phenylethyl]pyrimidine-2,4-diamine] | > 1900 nM |  |  |
| Cc1nc(NCc2ccc(C(F)(F)F)cn2)nc(NC2CCCCC2)c1C [Example 20, N^4-cyclohexyl-5,6-dimethyl-N^2-{[5-(trifluoromethyl)pyridin-2-yl]methyl}pyrimidine-2,4-diamine] | > 8700 nM |  |  |
| Cc1ccccc1CNc1nc(NCc2ccccn2)nc2c1CCC2 [Example 2, N^4-(2-methylbenzyl)-N^2-(pyridin-2-ylmethyl)-6,7-dihydro-5H-cyclopenta[d]pyrimidine-2,4-diamine] | 2050 nM | 2050 nM | 7.17 µM |
| Cc1nc(NCc2ccccn2)nc(NC2CCC2)c1C [Example 47, N^4-cyclobutyl-5,6-dimethyl-N^2-(pyridin-2-ylmethyl)pyrimidine-2,4-diamine] | > 5300 nM |  |  |
| Cc1nc(NCc2ccccn2)nc(NC2CCS(=O)(=O)C2)c1C (centres unmarked) [Example 70, N^4-(1,1-dioxidotetrahydrothiophen-3-yl)-5,6-dimethyl-N^2-(pyridin-2-ylmethyl)pyrimidine-2,4-diamine] | 950 nM |  |  |
| Cc1ccc(O)c(CNc2nc(C)c(C)c(NC3CCCCC3)n2)n1 [Example 7, 2-({[4-(cyclohexylamino)-5,6-dimethylpyrimidin-2-yl]amino}methyl)-6-methylpyridin-3-ol] | > 12000 nM |  |  |
| Cc1nc(NCc2ccccn2)nc(NC2CCN(C(=O)OC(C)(C)C)CC2)c1C [Example 82, tert-butyl 4-({5,6-dimethyl-2-[(pyridin-2-ylmethyl)amino]pyrimidin-4-yl}amino)piperidine-1-carboxylate] | 540 nM |  |  |
| CCc1c(C)nc(NCc2ccccn2)nc1Nc1ccc(F)cc1 [Example 89, 5-ethyl-N^4-(4-fluorophenyl)-6-methyl-N^2-(pyridin-2-ylmethyl)pyrimidine-2,4-diamine] | 480 nM |  |  |

These reach a lower EC50 [1, 2]. Values come first.

| EC50 [1, 2] | EC50 [1, 3] | SMILES | MTT TD50 (HEp-2 cells) |
| --- | --- | --- | --- |
| 250 nM | 150 nM | Cc1nc(NCc2ccccn2)nc(NC2CCCCC2)c1C [Example 1, N^4-cyclohexyl-5,6-dimethyl-N^2-(pyridin-2-ylmethyl)pyrimidine-2,4-diamine] | 23.00 µM |
| 69 nM |  | Cc1nc(NCc2cccs2)nc(NC2CCCCC2)c1C [Example 22, N^4-cyclohexyl-5,6-dimethyl-N^2-(2-thienylmethyl)pyrimidine-2,4-diamine] |  |
| 120 nM |  | Cc1nc(NCc2ccccn2)nc(NC2CCCc3ccccc32)c1C (centres unmarked) [Example 35, 5,6-dimethyl-N^2-(pyridin-2-ylmethyl)-N^4-(1,2,3,4-tetrahydronaphthalen-1-yl)pyrimidine-2,4-diamine] |  |
| 220 nM |  | Cc1nc(NCc2ccccn2)nc(NC2CCC(F)(F)CC2)c1C [Example 32, N^4-(4,4-difluorocyclohexyl)-5,6-dimethyl-N^2-(pyridin-2-ylmethyl)pyrimidine-2,4-diamine] |  |
| 140 nM |  | Cc1nc(NCc2ccccn2)nc(NCc2ccc(F)cc2)c1C [Example 97, N^4-(4-fluorobenzyl)-5,6-dimethyl-N^2-(pyridin-2-ylmethyl)pyrimidine-2,4-diamine] |  |
| 110 nM |  | Cc1cccc(Nc2nc(NCc3ccccn3)nc(C)c2C)c1 [Example 69, 5,6-dimethyl-N^4-(3-methylphenyl)-N^2-(pyridin-2-ylmethyl)pyrimidine-2,4-diamine] |  |
| 45 nM |  | Cc1nc(NCc2cn(C)cn2)nc(NC2CCCCC2)c1C [Example 24, N^4-cyclohexyl-5,6-dimethyl-N^2-[(1-methyl-1H-imidazol-4-yl)methyl]pyrimidine-2,4-diamine] |  |
| 40 nM |  | Cc1nc(NCc2ccccn2)nc(NC2CCCC(C)C2C)c1C (centres unmarked) [Example 41, N^4-(2,3-dimethylcyclohexyl)-5,6-dimethyl-N^2-(pyridin-2-ylmethyl)pyrimidine-2,4-diamine] |  |
| 40 nM |  | Cc1nc(NCc2ccccn2)nc(Nc2ccc3c(c2)OCO3)c1C [Example 61, N^4-(1,3-benzodioxol-5-yl)-5,6-dimethyl-N^2-(pyridin-2-ylmethyl)pyrimidine-2,4-diamine] |  |
| 38 nM |  | Cc1nc(NCc2ccccn2)nc(Nc2cccc(OC(F)(F)F)c2)c1C [Example 53, 5,6-dimethyl-N^2-(pyridin-2-ylmethyl)-N^4-[3-(trifluoromethoxy)phenyl]pyrimidine-2,4-diamine] |  |
| 52 nM |  | Cc1ccc(Nc2nc(NCc3ccccn3)nc(C)c2C)cc1 [Example 63, 5,6-dimethyl-N^4-(4-methylphenyl)-N^2-(pyridin-2-ylmethyl)pyrimidine-2,4-diamine] |  |
| 34 nM |  | Cc1ccnc(CNc2nc(C)c(C)c(NC3CCCCC3)n2)c1 [Example 17, N^4-cyclohexyl-5,6-dimethyl-N^2-[(4-methylpyridin-2-yl)methyl]pyrimidine-2,4-diamine] |  |
| 7 nM |  | Cc1ccccc1Nc1nc(NCc2ccccn2)nc(C)c1C [Example 67, 5,6-dimethyl-N^4-(2-methylphenyl)-N^2-(pyridin-2-ylmethyl)pyrimidine-2,4-diamine] |  |
| 40 nM |  | Cc1ccc(F)cc1Nc1nc(NCc2ccccn2)nc(C)c1C [Example 71, N^4-(5-fluoro-2-methylphenyl)-5,6-dimethyl-N^2-(pyridin-2-ylmethyl)pyrimidine-2,4-diamine] |  |
| 25 nM |  | Cc1nc(NCc2ccccn2)nc(Nc2cccc(F)c2C)c1C [Example 76, N^4-(3-fluoro-2-methylphenyl)-5,6-dimethyl-N^2-(pyridin-2-ylmethyl)pyrimidine-2,4-diamine] |  |
